# Laboratory results: patent US8586548B2, “NAP alpha-aminoisobutyric acid analog with neuroprotective activity” (Ramot at Tel-Aviv University, Ltd., priority 2009, dated 2013)
# Non-standard residues stand in square brackets, D forms with d. No end group written: not given here. Aib = CC(C)(N)C(=O)O
# What was measured:
# [1] = system: ADNP heterozygous male mice; assay: Passive avoidance test; assay type: in vivo, mouse
# Description: The heterozygous ADNP mice were generated as before (Pinhasov et al., Brain Res. Dev. Brain Res. 2003, 144:83-90; and Vulih-Shultzman et al., J Pharmacol Exp Ther. 2007, 323(2):438-49). To avoid any variability in results associated with the estrous cycle in females, only ADNP^+/− male mice are use for behavioral experiments.
# Iso-NAP (NAXaaVSIXaaQ; SEQ ID NO:1) was dissolved in a vehicle solution, in which each milliliter included 7.5 mg of NaCl, 1.7 mg of citric acid monohydrate, 3 mg of disodium phosphate dihydrate, and 0.2 mg of benzalkonium chloride solution (50%). Iso-NAP or vehicle solution (DD) was administered to mice handheld in a semi-supine position with nostrils facing the investigator. A pipette tip was used to administer 2.5 μl/each nostril. The mouse was handheld until the solution is entirely absorbed. Nasal Iso-NAP application was performed daily, once a day, for 2 weeks for the Morris water maze test. In the 2nd week, Iso-NAP was applied 1 h before the daily test (see below), which was conducted for 5 consecutive days. In the passive avoidance test, all mice were treated for a total of 7 days, on the 7th day of treatment the test began. Iso-NAP was applied 1 h before the test.
# The passive avoidance task is a fear-motivated avoidance task based on the mouse conflict between avoiding the light stimulus and approaching the dark chamber in which a painful shock is given. The mouse learns to refrain from stepping through a door to an apparently safer but previously punished dark compartment. The latency to refrain from crossing into the punished compartment serves as an index of the ability to avoid, and allows memory to be assessed (Johns Hopkins University, Department of Psychological and Brain Sciences, website: nbc.jhu.edu/protocols/PassiveAvoidanceProtocol.aspx). […]
# The experiment is carried out for three days. […] The time to enter the dark compartment is recorded. […] The door is opened after 30 seconds, and the time it takes the mouse to enter the dark chamber is recorded. […] After 30 seconds (T0), the door is opened and the latency to enter the dark chamber is recorded. […]
# [2] = system: cerebral cortical cultures derived from newborn rats; assay: Neuronal survival in cerebral cortical cultures treated with beta-amyloid peptide (1-42); assay type: cell-based, rat; details: for protection of neurons against neurotoxicity of beta-amyloid peptide 1-42 (neuronal cell numbers): 2.5 μM beta-amyloid peptide (1-42), peptide 10^−16M to 10^−10M, p<0.001, FIG. 1; for neuroprotective activity compared with unmodified NAP: FIG. 1 compared with FIG. 2, 2.5 micromolar beta amyloid peptide
# Description: All peptides were dissolved in distilled sterile water to a concentration of 1 mM and then diluted in water in 1:10 steps up to the required concentration. The beta-amyloid peptide (1-42) was obtained from American Peptides, Calif., USA.
# Cerebral cortical cultures derived from newborn rats were used for neuron survival assays. For mixed neuroglial cultures, neurons 300,000 cells/35 mm dish were seeded on 8-day-old astrocytes prepared as described (Bassan et al., supra (1999); Brenneman et al., supra (2004)). Cells were allowed to grow for one week at 37° C. 10% CO2 before experiments were performed. Four days after neuronal plating, cultures were given their respective treatment and assayed for neuronal survival after an additional 5 day incubation period.
# The culture medium was removed and cells were washed twice with phosphate buffered saline (PBS). 1.5 ml of 3% glutaraldehyde (Fluka Biochemika, Steinheim, Germany) in 0.1 M cacodylic acid pH 7.2 (Fluka Biochemika, Steinheim, Germany) was added for two hours. The cells were then washed with PBS and 2 ml of 0.15 M cacodylic acid pH 7.2 was added. Neuronal identity was established by morphological criteria using an Olympus CK2 light microscope (Olympus, Japan) with a X40 lens. Fifty fields were counted in each dish (Zemlyak et al., supra (2000)).
# The number of surviving neurons was assessed in cerebral cortical cultures derived from newborn rats using the beta-amyloid peptide (1-42), an Alzheimer's disease-associated toxin, at 2.5 μM. Alpha-aminoisobutric NAP was used at the following concentrations: 10^−16M, 10^−15M, 10^−12M, 10^−10M. […] Cell counts totaled>100% of control, because the treatment prevents neuronal cell death that occurred naturally in the cultures (10-20%), as observed before (Bassan et al., supra (1999)). […] This is an unexpected finding in view of previous reports that describe the SIP motif as essential for NAP neuroprotection (Wilkemeyer et al., Proc Natl Acad Sci USA, 100(14):8543-8 (2003)).
# [3] = listed as Alpha-aminoisobutric NAP
substance,measurement,setting,value
"NAXaaVSIXaaQ (NA[Aib]VSI[Aib]Q) [Alpha-aminoisobutyric NAP, both prolines of NAP substituted]",latency to enter the dark room at T0 and T30 vs T-trial,"[1]; 2 μg/mice intranasal, P<0.05",entered the dark room significantly slower than on the T-trial
same,effect on learning and memory (conclusion),"[1]; 2 μg/mice, conclusion from Morris water maze and passive avoidance tests",seems to affect positively learning and memory
same,latency to enter the dark room,[1]; 30 μg/mice intranasal,entered the dark room faster than the NAP2 group
same,cell counts,[2]; 2.5 μM beta-amyloid peptide (1-42) plus peptide,> 100 % of control
same,protection of neurons against neurotoxicity of beta-amyloid peptide 1-42 (neuronal cell numbers),[2]; [3],protected against neurotoxicity associated with the beta-amyloid peptide 1-42
same,protection of neurons against neurotoxicity of beta-amyloid peptide 1-42 (neuronal cell numbers),[2]; listed as alpha-aminoisobutric NAP,confers protection of neurons
same,neuroprotective activity compared with unmodified NAP,[2],increased neuroprotective activity
same,neuroprotective activity compared with unmodified NAP,[2]; [3],increased activity
